Measured values: patent publication US10238688B2, “Combination therapies for bladder cancer” (GENEDIA BIOTECH CO. LTD., priority 2015, dated 2019)

Columns and labels:
Assay type in all cases: cell-based, human
Notch pathway = assay: Cignal Finder dual-luciferase pathway reporter, Notch; parameters: key to Relative activity, Notch reporter: firefly/renilla ratio, background (negative control) subtracted; conditions: for Relative activity, Notch reporter: luc/Renluc relative to negative control reporter, single drug at 4 folds vs EH/Ci/Mi combination;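 for digitalized pathway activity, Notch: code −1 means repressed below 0.5-fold of 5637 cells or no-drug control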
Method: The pathway analysis was performed with Qiagen's Cignal Finder Pathway Reporter Array systems according to the manufacturer's instructions. The pathway-focused dual-luciferase reporter construct was a mixture of an inducible transcription factor responsive firefly luciferase reporter and constitutively expressing renilla construct. Transcriptional response element (TRE) sequence response elements to each specific transcriptional factor triggered by the different signaling pathways are positioned before the TATA box of firefly luciferase reporter gene. The extent of activity of the reporter reflects the level of activity of the particular signaling pathway. CMV controlled renilla expression vector is co-transfected into the cell as an internal control. Non-inducible reporter construct that lacks the transcriptional factor binding sequence and could not be induced by any transcription factors is used as a negative control. Cells transfected with CMV directed firefly luciferase reporter gene serve as a positive control. Briefly, cells seeded in 6-well plates were transfected with Cignal finder pathway arrays according to the manufacturer's instructions (Qiagen). Then cells were seeded onto 96-well plates. Ci (6000 ng/mL), Mi (800 ng/mL), or EH (1000 ng/mL) and Ci/Mi/EH combination (Ci, 1500 ng/mL, Mi, 800 ng/mL and EH, 1000 ng/m L) were then added to the cells 24 h post-transfection. After 6 h of incubation with the different drugs at 37° C., cells were lysed and a dual luciferase assay (for firefly and renilla luciferase) was performed using a PromegaGloMax 20/20 illuminometer. The firefly luciferase activities were normalized over the renilla luciferase activities after background activity determined by luciferase activities of negative controls was subtracted. A triple test of cell survival under these drug doses was also performed by MTT assay following 18 h incubation at 37° C. […]

J-82 = assay: MTT cell survival / IC50, J-82 cells; conditions: J82; Table S3; ng/ml: Pi 40, Pa 160, EH 250, Ci 1500, Mi 200; 1=Ci/Mi, 2=EH/Ci/Mi, 3=Pa/Ci/Mi, 4=Pi/Ci/Mi
Method: (§1) The clinical grade of the chemotherapeutics (NCI Dictionary of Cancer Terms) was provided by the First Affiliated Hospital of Harbin Medical University: Pirarubicin (Pi, Wanle, Shenzhen), Paclitaxel (Pa, Taiji, Sichuan), Adriamycin (Ad, Pfizer, Jiangsu), Epirubicin Hydrochloride (EH, Haizheng, Zhejiang), Hydroxycamptothecin (Hy, Lishizhen, Hubei), Cisplatin (Ci, Haosen, Jiangsu), Gemcitabine (Ge, Haosen, Jiangsu) and Mitomycin (Mi, Haizheng, Zhejiang). The drug induced cell death was determined by a thiazolyl […] (MTT, 490 nm reading) based cell proliferation assay in the cultured cells following treatment by various concentrations of drugs for 72 hours. The relative chemoresistance to each drug of all cell lines was calculated with the lowest IC50 as a reference. The overall chemoresistance of each cell line was described as “chemoresistance index”, the numerator of the total relative IC50 to all the drugs over the number of drugs to rank the overall resistance state of each cell line to the six chemotherapeutics collectively.
The relative IC50 (fold) of each drug of all nine cell lines was normalized to the lowest IC50 in the most sensitive cell line (FIG. 2G), to describe the single drug resistance of cell lines. The overall chemoresistance of each cell line, a “chemoresistance index” (the numerator of the total relative IC50 over the number of drugs) (FIG. 2G) were calculated to rank the overall resistance state of each cell line to this six chemotherapeutics.
(§2) Twenty six-drug combinations at the indicated doses were initially generated through a random number generator (using MATLAB MathWorks©, Natick, Mass., U.S.) (The upper half of Table 1). The cell survival (% over the not drug control) of treated cells was determined and then used for a calculation of the average cumulative cell survival (%, ACS: the sum of cell survival (%) per combination divided by the number of cell lines tested). ACS<30% was used to separate the effective from the not-effective combinations.

[1] = system: bladder cancer cell lines; assay: Average cumulative cell survival (ACS) over the panel of cell lines tested; conditions: for ACS (%): eight cell lines, Table S3, ng/ml: Pi 40, Pa 160, EH 250, Ci 1500, Mi 200, 1=Ci/Mi, 2=EH/Ci/Mi, 3=Pa/Ci/Mi, 4=Pi/Ci/Mi; for ACS: four-fold dosed component drugs alone: Ci 6000 ng/mL, Mi 800 ng/mL, EH 1000 ng/mL (Table S4); for ACS (%) for cancer cells: seven cancer cell lines, ng/ml: EH 1000, Ci 6000, Mi 800, Pi 160, Pa 640, Ge 20, EH/Ci/Mi regimen
Method: as §1
The “Differential Evolution” algorithm guided experimental optimization (DE) consisted of three iterative operations: generating drug combinations of experimental testing, acquiring the efficacy of the generated drug combinations with biological assays and recalculating further improved drug combinations using a feedback search algorithm. This example first tested twenty drug combinations at randomized doses. These drug combinations were generated from a random integer matrix generator, coded in MATLAB™ language. These twenty drug combinations were then experimentally tested for cancer cell cytotoxicity. The experimental data were then subjected to calculation with a DE algorithm for new drug combinations based on three major mathematical calculations: “Mutation”, “Crossover” and “Selection”. The equations for each step can be found in the main test. The equations for each step are coded in MATLAB™ language.
as §2, with “combinations. Nine of the twenty combinations tested in the 1st round of iteration fell into this category (the lower half of Table 1).” for “combinations.”

SMILES	digitalized pathway activity, Notch (Notch pathway; 5637 cells)	relative drug trigged pathway activity over the no-drug level, Notch (Notch pathway; 5637 cells) [fold]	Relative activity, Notch reporter (Notch pathway; 5637 cells)	relative drug trigged pathway activity over the no-drug level, Notch (Notch pathway; Biu87 cells) [fold]	Relative activity, Notch reporter (Notch pathway; Biu87 cells)	relative drug trigged pathway activity over the no-drug level, Notch (Notch pathway; H-bc cells) [fold]	Relative activity, Notch reporter (Notch pathway; H-bc cells)	digitalized pathway activity, Notch (Notch pathway; SV-HUC-1 cells)	relative drug trigged pathway activity over the no-drug level, Notch (Notch pathway; SV-HUC-1 cells) [fold]	Relative activity, Notch reporter (Notch pathway; SV-HUC-1 cells)	digitalized pathway activity, Notch (Notch pathway; UM-UC-3 cells)	Relative activity, Notch reporter (Notch pathway; UM-UC-3 cells)	relative drug trigged pathway activity over the no-drug level, Notch (Notch pathway; Um-Uc-3 cells) [fold]	Cell survival (%) (J-82)	ACS (%) [1] [%]	ACS [1] [%]	ACS (%) for cancer cells [1] [%]	digitalized pathway activity, Notch (Notch pathway; Biu87 cells)
N.N.[Cl][Pt][Cl] [Ci, (SP-4-2)-diamminedichloroplatinum(II)]	0 (null (0) if neither of the above holds)	1.39	1.41	0.5	2.23	0.31	1.60	0 (null (0) if neither of the above holds)	1.44	6.20	0 (null (0) if neither of the above holds)	4.99	1.01	15.42	22.9	16.60	9.11	
COc1cccc2c1C(=O)c1c(O)c3c(c(O)c1C2=O)C[C@@](O)(C(=O)CO)C[C@@H]3[C@@H]1C[C@H](N)[C@@H](O)[C@H](C)O1 [EH, (8R,10S)-10-((2S,4S,5R,6S)-4-amino-5-hydroxy-6-methyltetrahydro-2H-pyran-2-yl)-6,8,11-trihydroxy-8-(2-hydroxyacetyl)-1-methoxy-7,8,9,10-tetrahydrotetracene-5,12-dione]		1.92	1.95	1.34	5.94	1.6	2.20	0 (null (0) if neither of the above holds)	1.3	5.60		10.16	2.05	45.03	39.75	9.11	16.60	0 (null (0) if neither of the above holds)
COC12C(COC(N)=O)C3=C(C(=O)C(C)=C(N)C3=O)N1CC1NC12 (stereo not shown) [Mi, [6-Amino-8a-methoxy-5-methyl-4,7-dioxo-1,1a,2,4,7,8,8a,8b-octahydroazireno [2′,3′:3,4]pyrrolo[1,2-a]indol-8-yl]methyl carbamate]		2.2	2.23	1.45	6.42	0.42	0.59	0 (null (0) if neither of the above holds)	0.95	4.10		7.40	1.5	48.38	56.85	40.49	40.49	0 (null (0) if neither of the above holds)
